Assay type in all cases: biochemical
One experiment addresses Pim1 kinase (Homo sapiens, UniProt P11309). Kind of experiment: Pim1 ATP depletion assay.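 Also: Luciferase-luciferin luminescence readout of residual ATP after PIM1 transfers phosphate to a peptide substrate, 40 µM ATP added, reaction run to roughly half ATP consumption.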 The conditions noted are these: Pim1 ATP depletion assay; read-out: IC50 (μM) PIM1.
The next experiment deals with Pim2 kinase (Homo sapiens, UniProt Q9P1W9). Kind of experiment: Pim2 ATP depletion assay.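 Also: Luciferase-based luminescent readout of ATP remaining after PIM2 phosphorylates a BAD peptide, final 5 nM enzyme, 4 µM ATP, 10 µM peptide, 2.5% DMSO, run to roughly half ATP consumption.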 Conditions: read-out: IC50 (μM) PIM2.
Chain of Pim2 kinase (Q9P1W9 whole entry): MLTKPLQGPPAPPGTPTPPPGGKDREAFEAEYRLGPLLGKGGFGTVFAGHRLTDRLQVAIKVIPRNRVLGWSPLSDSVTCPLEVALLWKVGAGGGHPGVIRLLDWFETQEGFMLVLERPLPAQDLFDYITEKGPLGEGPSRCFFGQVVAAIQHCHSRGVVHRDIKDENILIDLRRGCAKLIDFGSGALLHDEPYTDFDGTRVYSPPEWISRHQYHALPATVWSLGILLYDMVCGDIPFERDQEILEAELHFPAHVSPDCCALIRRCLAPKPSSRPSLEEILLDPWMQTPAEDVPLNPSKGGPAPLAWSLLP
The next experiment has as its target Pim3 kinase (Homo sapiens, UniProt Q86V86). Kind of experiment: Pim3 ATP depletion assay. Conditions: read-out: IC50 (μM) PIM3.

Some results are limits rather than exact numbers.

By IC50 is commonly meant the concentration at which inhibition is half-maximal.

Chain of Pim1 kinase (P11309 whole entry): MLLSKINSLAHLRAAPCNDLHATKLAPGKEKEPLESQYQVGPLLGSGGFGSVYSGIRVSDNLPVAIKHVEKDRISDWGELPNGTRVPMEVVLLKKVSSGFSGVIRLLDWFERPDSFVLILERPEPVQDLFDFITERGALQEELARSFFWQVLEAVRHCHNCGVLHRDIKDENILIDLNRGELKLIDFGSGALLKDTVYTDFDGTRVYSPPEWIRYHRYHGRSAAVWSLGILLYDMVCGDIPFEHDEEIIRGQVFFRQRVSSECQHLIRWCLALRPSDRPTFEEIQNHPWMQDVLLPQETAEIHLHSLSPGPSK

In the case of `Nc1ccc(-c2nccs2)nc1C(=O)Nc1cnccc1N1CC[C@@H](F)[C@H](N)C1` [Example 257, 3-amino-N-{4-[(3R,4R)-3-amino-4-fluoropiperidin-1-yl]pyridin-3-yl}-6-(1,3-thiazol-2-yl)pyridine-2-carboxamide], the IC50 at Pim1 kinase, on Pim2 kinase and on Pim3 kinase was under 1 µM each time.

With `CC(C)NC(=O)c1ccc(F)c(-c2ccc(N)c(C(=O)Nc3cnccc3N3CC[C@H](F)[C@H](N)C3)n2)c1` [Example 258, 3-Amino-6-(2-fluoro-5-isopropylcarbamoyl-phenyl)-pyridine-2-carboxylic acid (3-amino-4-fluoro-3,4,5,6-tetra-hydro-2H-[1,4′]bipyridinyl-3′-yl)-amide], the IC50 at Pim1 kinase, on Pim2 kinase and at Pim3 kinase was under 1 µM throughout.

As to `Nc1cc(F)c(Br)nc1C(=O)Nc1cnccc1N1CCC[C@H](N)C1` [Example 259, 3-amino-N-{4-[(3S)-3-amino-piperidin-1-yl]pyridin-3-yl}-6-bromo-5-fluoropyridine-2-carboxamide], the IC50 on Pim1 kinase, on Pim2 kinase and at Pim3 kinase was under 1 µM in each case.

In the case of `Nc1cc(F)cnc1C(=O)Nc1cnccc1N1CCC[C@H](N)C1` [Example 260, 3-amino-N-{4-[(3S)-3-amino-piperidin-1-yl]pyridin-3-yl}-5-fluoropyridine-2-carboxamide], the IC50 on Pim1 kinase, on Pim2 kinase and on Pim3 kinase was under 1 µM each time.

Take `Nc1cnc(-c2ccccc2)nc1C(=O)Nc1cnccc1N1CCCC(O)(C(F)(F)F)C1` (stereo not drawn) [Example 262, 5-Amino-2-phenyl-pyrimidine-4-carboxylic acid (3-hydroxy-3-trifluoromethyl-3,4,5,6-tetra-hydro-2H-[1,4′]bipyridinyl-3′-yl)-amide]: the IC50 at Pim1 kinase was under 1 µM; at Pim2 kinase it was 1 to 10 µM; on Pim3 kinase it was under 1 µM.

Turning to `Nc1cnc(-c2ccccc2F)nc1C(=O)Nc1cnccc1N1CCC[C@H](N)C1` [Example 263, 5-Amino-2-(2-fluoro-phenyl)-pyrimidine-4-carboxylic acid (3-amino-3,4,5,6-tetrahydro-2H-[1,4′]bipyridinyl-3′-yl)-amide], the IC50 at Pim1 kinase, on Pim2 kinase and at Pim3 kinase was under 1 µM in each case.

As for `Nc1cc(-c2ccncc2NC(=O)c2nc(-c3c(F)cccc3F)ccc2N)nc(C(F)(F)F)n1` [Example 266, 3-Amino-6-(2,6-difluoro-phenyl)-pyridine-2-carboxylic acid [4-(6-amino-2-trifluoromethyl-pyrimidin-4-yl)-pyridin-3-yl]-amide], the IC50 at Pim1 kinase, on Pim2 kinase and on Pim3 kinase was under 1 µM in each case.

As for `COc1cc(-c2ccncc2NC(=O)c2nc(-c3cc(C(=O)NC(C)C)ccc3F)ccc2N)nc(N)n1` [Example 267, 3-Amino-6-(2-fluoro-5-isopropylcarbamoyl-phenyl)-pyridine-2-carboxylic acid [4-(2-amino-6-methoxy-pyrimidin-4-yl)-pyridin-3-yl]-amide], the IC50 at Pim1 kinase, at Pim2 kinase and at Pim3 kinase was under 1 µM each time.

For the compound `Cc1cc(-c2ccncc2NC(=O)c2nc(-c3ccccc3)ncc2N)cc(N)n1` [Example 269, 5-Amino-2-phenyl-pyrimidine-4-carboxylic acid (6′-amino-2′-methyl-[4,4′]bipyridinyl-3-yl)-amide], the IC50 at Pim1 kinase, at Pim2 kinase and on Pim3 kinase was under 1 µM throughout.

With `Nc1cnc(-c2c(F)cccc2F)nc1C(=O)Nc1cnccc1N1CCC[C@H](N)C1` [Example 270, 5-Amino-2-(2,6-difluoro-phenyl)-pyrimidine-4-carboxylic acid (3-amino-3,4,5,6-tetrahydro-2H-[1,4′]bipyridinyl-3′-yl)-amide], the IC50 on Pim1 kinase, at Pim2 kinase and on Pim3 kinase was under 1 µM throughout.

Regarding `COc1nc(N)cc(-c2ccncc2NC(=O)c2nc(-c3c(F)cccc3F)ccc2N)n1` [Example 271, 3-Amino-6-(2,6-difluoro-phenyl)-pyridine-2-carboxylic acid [4-(6-amino-2-methoxy-pyrimidin-4-yl)-pyridin-3-yl]-amide], the IC50 at Pim1 kinase, at Pim2 kinase and at Pim3 kinase was under 1 µM each time.

For the compound `Cc1nc(N)cc(-c2ccncc2NC(=O)c2nc(-c3ccccc3F)ncc2N)n1` [Example 272, 5-Amino-2-(2-fluoro-phenyl)-pyrimidine-4-carboxylic acid [4-(6-amino-2-methyl-pyrimidin-4-yl)-pyridin-3-yl]-amide], the IC50 at Pim1 kinase, on Pim2 kinase and on Pim3 kinase was under 1 µM in each case.

Turning to `Cc1nc(N)cc(-c2ccncc2NC(=O)c2nc(-c3cc(C(=O)NC(C)C)ccc3F)ccc2N)n1` [Example 273, 3-Amino-6-(2-fluoro-5-isopropylcarbamoyl-phenyl)-pyridine-2-carboxylic acid [4-(6-amino-2-methyl-pyrimidin-4-yl)-pyridin-3-yl]-amide], the IC50 at Pim1 kinase, at Pim2 kinase and on Pim3 kinase was under 1 µM throughout.

For `Cc1nc(N)cc(-c2ccncc2NC(=O)c2nc(-c3c(F)cccc3F)ccc2N)n1` [Example 274, 3-Amino-6-(2,6-difluoro-phenyl)-pyridine-2-carboxylic acid [4-(6-amino-2-methyl-pyrimidin-4-yl)-pyridin-3-yl]-amide], the IC50 on Pim1 kinase, on Pim2 kinase and at Pim3 kinase was under 1 µM throughout.

On to `Nc1ccc(-c2c(F)cccc2F)nc1C(=O)Nc1cnccc1N1CC[C@@H](F)[C@H](N)C1` [Example 277, 3-Amino-6-(2,6-difluoro-phenyl)-pyridine-2-carboxylic acid (3-amino-4-fluoro-3,4,5,6-tetrahydro-2H-[1,4′]bipyridinyl-3′-yl)-amide], for which the IC50 on Pim1 kinase, at Pim2 kinase and at Pim3 kinase was under 1 µM in each case.

As to `Nc1ccc(-c2c(F)cccc2F)nc1C(=O)Nc1cnccc1N1CC(N)CC(CF)C1` (stereo not drawn) [Example 278, 3-Amino-6-(2,6-difluoro-phenyl)-pyridine-2-carboxylic acid (5-amino-3-fluoromethyl-3,4,5,6-tetrahydro-2H-[1,4′]bi-pyridinyl-3′-yl)-amide], the IC50 at Pim1 kinase, at Pim2 kinase and at Pim3 kinase was under 1 µM in each case.

Consider `Nc1ccc(C2CCCCC2)nc1C(=O)Nc1cnccc1N1CC(N)CC(C(F)(F)F)C1` (stereo not drawn) [Example 279, 3-Amino-6-cyclohexyl-pyridine-2-carboxylic acid (3-amino-5-trifluoromethyl-3,4,5,6-tetra-hydro-2H-[1,4′]bipyridinyl-3′-yl)-amide], for which the IC50 at Pim1 kinase, on Pim2 kinase and at Pim3 kinase was under 1 µM in each case.

Take `NC1CC(C(F)(F)F)CN(c2ccncc2NC(=O)c2nc(-c3ccccc3F)ccc2F)C1` (stereo not drawn) [Example 280, 3-Fluoro-6-(2-fluoro-phenyl)-pyridine-2-carboxylic acid (3-amino-5-trifluoromethyl-3,4,5,6-tetrahydro-2H-[1,4′]bipyridinyl-3′-yl)-amide]: the IC50 on Pim1 kinase, on Pim2 kinase and at Pim3 kinase was under 1 µM each time.

`NC1CC(C(F)(F)F)CN(c2ccncc2NC(=O)c2ccc(F)c(-c3ccccc3F)n2)C1` (stereo not drawn) [Example 281, 5-Fluoro-6-(2-fluoro-phenyl)-pyridine-2-carboxylic acid (3-amino-5-trifluoromethyl-3,4,5,6-tetrahydro-2H-[1,4′]bipyridinyl-3′-yl)-amide]: the IC50 at Pim1 kinase, on Pim2 kinase and on Pim3 kinase was under 1 µM in each case.

With `Nc1ccc(-c2c(F)cccc2F)nc1C(=O)Nc1cnccc1N1CC(N)CC(C(F)(F)F)C1` (stereo not drawn) [Example 282, 3-Amino-6-(2,6-difluoro-phenyl)-pyridine-2-carboxylic acid (3-amino-5-trifluoromethyl-3,4,5,6-tetrahydro-2H-[1,4′]bi-pyridinyl-3′-yl)-amide], the IC50 on Pim1 kinase, at Pim2 kinase and at Pim3 kinase was under 1 µM each time.

For `CC1CC(N)CN(c2ccncc2NC(=O)c2nc(C3CCCCC3)ccc2N)C1` (stereo not drawn) [Example 283, 3-Amino-6-cyclohexyl-pyridine-2-carboxylic acid (3-amino-5-methyl-3,4,5,6-tetrahydro-2H-[1,4′]bipyridinyl-3′-yl)-amide], the IC50 on Pim1 kinase, at Pim2 kinase and at Pim3 kinase was under 1 µM each time.

Take `Nc1ccc(C2CCCCC2)nc1C(=O)Nc1cnccc1N1C[C@@H](N)C[C@@H](F)C1` [Example 284, 3-Amino-6-cyclohexyl-pyridine-2-carboxylic acid (3-amino-5-fluoro-3,4,5,6-tetrahydro-2H-[1,4′]bipyridinyl-3′-yl)-amide]: the IC50 on Pim1 kinase, at Pim2 kinase and at Pim3 kinase was under 1 µM in each case.

For `CO[C@@H]1C[C@H](N)CN(c2ccncc2NC(=O)c2nc(C3CCCCC3)ccc2N)C1` [Example 285, 3-Amino-6-cyclohexyl-pyridine-2-carboxylic acid (3-amino-5-methoxy-3,4,5,6-tetrahydro-2H-[1,4′]bipyridinyl-3′-yl)-amide], the IC50 on Pim1 kinase, at Pim2 kinase and on Pim3 kinase was under 1 µM throughout.

Turning to `CC1CC(N)CN(c2ccncc2NC(=O)c2nc(-c3ccccc3F)ccc2F)C1` (stereo not drawn) [Example 286, 3-Fluoro-6-(2-fluoro-phenyl)-pyridine-2-carboxylic acid (5-amino-3-methyl-3,4,5,6-tetra-hydro-2H-[1,4′]bipyridinyl-3′-yl)-amide], the IC50 at Pim1 kinase, on Pim2 kinase and at Pim3 kinase was under 1 µM in each case.

The values above are taken from patent US20140249135A1, “PIM KINASE INHIBITORS AND METHODS OF THEIR USE” (NOVARTIS AG, priority 2007, published 2014).
